From ChEMBL document CHEMBL5260821, “2-Aminothiophene scaffolds: Diverse biological and pharmacological attributes in medicinal chemistry” (Eur J Med Chem, 2017) come the findings set out here.

The test system of one test is CCRF-CEM. Briefly: Antiproliferative activity against human CEM cells assessed as reduction in cell viability. It counts as functional, cell-based.
A further test addresses Neprilysin (Homo sapiens, UniProt P08473). Briefly: Partial agonist activity at human neprilysin expressed in CHP-212 cells. It counts as cell-based.
Test [1] concerns HeLa. Briefly: Antiproliferative activity against human HeLa cells assessed as reduction in cell viability at 10 to 50 uM relative to control. It is filed as functional. Particulars: dose 10-50 µM.
Test [2] concerns PANC-1. Briefly: Induction of cell cycle arrest in human PANC-1 cells assessed as accumulation of cells in G0/G1 phase. It is filed as functional.
Test [3] concerns HeLa. Description: Induction of cell cycle arrest in human HeLa cells assessed as accumulation of cells in subG1 phase. It counts as functional.
The test system of test [4] is PANC-1. Description: Antiproliferative activity against human PANC-1 cells assessed as reduction in cell viability at 25 to 50 uM relative to control. It counts as functional. The note with it: dose 25-50 µM.
The test system of test [5] is Influenza A virus. Description: Antiviral activity against Influenza A virus A/WSN/33(H1N1) strain. It counts as functional, organism-based.
In test [6] the test system is Influenza A virus. Briefly: Antiviral activity against influenza A virus. It is filed as functional, organism-based.
In the next test the test system is Escherichia coli. Briefly: Antibacterial activity against Escherichia coli ATCC 11229 assessed as inhibition zone. It counts as functional.
Another test has as its system T47D. Description: Antiproliferative activity against human T47D cells assessed as reduction in cell viability measured for 48 hr by MTT assay. It counts as functional, cell-based.
A further test deals with Candida albicans. Briefly: Antifungal activity against Candida albicans ATCC 10231 assessed as inhibition zone. It counts as functional.
The test system of another test is A549. Briefly: Antiproliferative activity against human A549 cells assessed as reduction in cell viability measured for 48 hr by MTT assay. Particulars: A549, 48 h. It is filed as functional, cell-based.
For another test, the system named is HCT-15. Description: Antiproliferative activity against human HCT-15 cells assessed as reduction in cell viability measured for 48 hr by MTT assay. The note with it: HCT-15, 48 h. It counts as functional, cell-based.
In test [7] the test system is Influenza A virus. Description: Antiviral activity against Influenza A virus H3N2 subtype. It counts as functional, organism-based.
The subject of a further test is Staphylococcus aureus. Description: Antibacterial activity against Staphylococcus aureus ATCC 6538 assessed as inhibition zone. It is filed as functional.
A further test deals with PC-3. Description: Antiproliferative activity against human PC-3 cells assessed as reduction in cell viability measured for 48 hr by MTT assay. It is filed as functional, cell-based. The note with it: PC-3, 48 h.

The structures appear in SMILES notation.

Sequence of Neprilysin (P08473 whole entry): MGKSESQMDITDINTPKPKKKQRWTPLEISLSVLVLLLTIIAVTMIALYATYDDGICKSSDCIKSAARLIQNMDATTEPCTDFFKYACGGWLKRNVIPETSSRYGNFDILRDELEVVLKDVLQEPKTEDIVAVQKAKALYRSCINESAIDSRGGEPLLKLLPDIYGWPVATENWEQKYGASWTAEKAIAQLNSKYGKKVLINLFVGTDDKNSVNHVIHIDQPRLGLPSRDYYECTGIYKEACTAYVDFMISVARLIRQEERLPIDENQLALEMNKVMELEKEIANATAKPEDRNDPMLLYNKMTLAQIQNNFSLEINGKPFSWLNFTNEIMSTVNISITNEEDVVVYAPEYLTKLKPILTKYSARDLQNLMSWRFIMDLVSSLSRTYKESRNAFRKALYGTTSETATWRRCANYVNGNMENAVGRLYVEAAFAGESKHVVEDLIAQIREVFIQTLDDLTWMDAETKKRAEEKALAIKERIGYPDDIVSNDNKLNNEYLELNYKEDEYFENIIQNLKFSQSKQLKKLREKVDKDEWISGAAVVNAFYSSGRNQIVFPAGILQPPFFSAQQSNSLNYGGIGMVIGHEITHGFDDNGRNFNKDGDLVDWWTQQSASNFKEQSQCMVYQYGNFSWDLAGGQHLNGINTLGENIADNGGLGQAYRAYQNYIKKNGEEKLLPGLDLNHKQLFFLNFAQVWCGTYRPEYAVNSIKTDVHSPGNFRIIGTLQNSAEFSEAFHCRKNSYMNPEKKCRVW

With `CCc1ccc(CSCc2cc(C(=O)OC)c(N)s2)cc1`, in the test with CCRF-CEM, the IC50 turned out to be 0.34 µM.

`CCCN(CC(F)(F)F)c1cc(Br)c(C#N)s1` had an EC50 on Neprilysin of 0.005 µM.

As for `COc1ccc(Br)cc1/C=N/c1sc2c(c1C#N)CCCCC2`, the Activity with HeLa [1] was determined as 35%; in the test on PANC-1 [2] it was 28.2%; in the test with HeLa [3], 6.2%; in the test with PANC-1 [4], 50%.

Turning to `CCOC(=O)c1c(N)sc(/N=C/c2ccc([N+](=O)[O-])o2)c1C(=O)OCC`, the IC50 with Influenza A virus [5] came to 0.94 µM; with Influenza A virus [6], 0.79 µM; in the test on T47D, 21.4 µM; in the test on A549 it was 22.8 µM; in the test on HCT-15, 10.2 µM; in the test with Influenza A virus [7] it was 2.4 µM. Besides, the “inhibition zone (IZ)” value in the test with Escherichia coli is 16 mm; in the test with Candida albicans, more than 22 mm; in the test on Staphylococcus aureus, 22 mm.

In the case of `COC(=O)c1cc(CSCc2ccc(C(C)C)cc2)sc1N`, the IC50 with CCRF-CEM was 0.46 µM.

Regarding `N#Cc1c(/N=C/c2ccc(F)cc2)sc2c1CCCC2`, the Activity is 50% in the test on HeLa [1], 9.3% with PANC-1 [2], 12.05% in the test on HeLa [3] and 68% in the test with PANC-1 [4].

For the compound `CCOC(=O)c1c(N)sc(/N=C/c2ccc([N+](=O)[O-])s2)c1C(=O)OCC`, the IC50 came out at 3.56 µM with Influenza A virus [5]; 10.5 µM with Influenza A virus [6]; 10.9 µM in the test on PC-3; 1.3 µM with A549; 6.1 µM with HCT-15; 3.72 µM with Influenza A virus [7].
